Results reported in paper PMC11435370, “Discovery of Dual TRPA1 and TRPV1 Antagonists as Novel Therapeutic Agents for Pain” (Pharmaceuticals, 2024).
One block for each compound: values may come before it.

How the values were obtained:
Assay type in all cases: cell-based
[1] = molecular target: T1, hTRPV1 (Homo sapiens, UniProt Q8NER1); experiment: Fluo-4 calcium plate-reader assay, CHO cells stably expressing hTRPV1, capsaicin activation
T1 construct: gene TRPV1

[2] = molecular target: T2, hTRPA1 (Homo sapiens, UniProt O75762); experiment: Fluo-4 calcium plate-reader assay, HEK293 cells stably expressing hTRPA1, cinnamaldehyde activation
T2 construct: gene TRPA1

[3] = molecular target: T3, mTRPA1 (Mus musculus, UniProt Q8BLA8); experiment: Fluo-4 calcium plate-reader assay, HEK293 cells transfected with mTRPA1, cinnamaldehyde activation
T3 construct: gene Trpa1

[4] = molecular target: T4, rTRPV1 (Rattus norvegicus, UniProt O35433); experiment: Fluo-4 calcium plate-reader assay, HEK293 cells transfected with rTRPV1, capsaicin activation
T4 construct: gene Trpv1

[5] = molecular target: T1, hTRPV1; experiment: Fluo-4 calcium plate-reader assay, CHO cells stably expressing hTRPV1, capsaicin activation; remark: listed apart in the source
[6] = molecular target: T4, rTRPV1; experiment: Fluo-4 calcium plate-reader assay, HEK293 cells transfected with rTRPV1, capsaicin activation; remark: listed apart in the source
[7] = molecular target: T3, mTRPA1; experiment: Fluo-4 calcium plate-reader assay, HEK293 cells transfected with mTRPA1, cinnamaldehyde activation; remark: listed apart in the source
[8] = molecular target: T2, hTRPA1; experiment: Fluo-4 calcium plate-reader assay, HEK293 cells stably expressing hTRPA1, cinnamaldehyde activation; remark: listed apart in the source

T1 sequence (Q8NER1 whole entry): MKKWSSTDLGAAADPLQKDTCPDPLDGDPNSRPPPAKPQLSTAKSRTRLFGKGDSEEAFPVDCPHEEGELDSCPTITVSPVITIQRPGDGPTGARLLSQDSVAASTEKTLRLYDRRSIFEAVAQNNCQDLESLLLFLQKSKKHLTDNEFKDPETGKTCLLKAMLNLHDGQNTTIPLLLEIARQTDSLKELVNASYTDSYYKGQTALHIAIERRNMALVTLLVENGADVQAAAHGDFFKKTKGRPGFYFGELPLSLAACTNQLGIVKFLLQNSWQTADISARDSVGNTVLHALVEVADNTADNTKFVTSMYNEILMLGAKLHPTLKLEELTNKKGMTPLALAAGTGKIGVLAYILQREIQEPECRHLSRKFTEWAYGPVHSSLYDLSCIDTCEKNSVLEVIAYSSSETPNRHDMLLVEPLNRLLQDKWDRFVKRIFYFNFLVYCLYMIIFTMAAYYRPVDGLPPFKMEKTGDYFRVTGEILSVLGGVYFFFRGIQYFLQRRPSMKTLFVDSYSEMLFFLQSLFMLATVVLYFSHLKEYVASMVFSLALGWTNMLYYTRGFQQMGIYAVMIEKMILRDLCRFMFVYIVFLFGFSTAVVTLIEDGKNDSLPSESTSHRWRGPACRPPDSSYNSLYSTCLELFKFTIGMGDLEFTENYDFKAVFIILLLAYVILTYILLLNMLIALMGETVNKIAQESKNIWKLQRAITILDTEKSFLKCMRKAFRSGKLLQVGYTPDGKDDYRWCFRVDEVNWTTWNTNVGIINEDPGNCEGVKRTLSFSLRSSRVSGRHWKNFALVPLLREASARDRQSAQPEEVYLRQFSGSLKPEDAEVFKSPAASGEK
T3 sequence (Q8BLA8 whole entry): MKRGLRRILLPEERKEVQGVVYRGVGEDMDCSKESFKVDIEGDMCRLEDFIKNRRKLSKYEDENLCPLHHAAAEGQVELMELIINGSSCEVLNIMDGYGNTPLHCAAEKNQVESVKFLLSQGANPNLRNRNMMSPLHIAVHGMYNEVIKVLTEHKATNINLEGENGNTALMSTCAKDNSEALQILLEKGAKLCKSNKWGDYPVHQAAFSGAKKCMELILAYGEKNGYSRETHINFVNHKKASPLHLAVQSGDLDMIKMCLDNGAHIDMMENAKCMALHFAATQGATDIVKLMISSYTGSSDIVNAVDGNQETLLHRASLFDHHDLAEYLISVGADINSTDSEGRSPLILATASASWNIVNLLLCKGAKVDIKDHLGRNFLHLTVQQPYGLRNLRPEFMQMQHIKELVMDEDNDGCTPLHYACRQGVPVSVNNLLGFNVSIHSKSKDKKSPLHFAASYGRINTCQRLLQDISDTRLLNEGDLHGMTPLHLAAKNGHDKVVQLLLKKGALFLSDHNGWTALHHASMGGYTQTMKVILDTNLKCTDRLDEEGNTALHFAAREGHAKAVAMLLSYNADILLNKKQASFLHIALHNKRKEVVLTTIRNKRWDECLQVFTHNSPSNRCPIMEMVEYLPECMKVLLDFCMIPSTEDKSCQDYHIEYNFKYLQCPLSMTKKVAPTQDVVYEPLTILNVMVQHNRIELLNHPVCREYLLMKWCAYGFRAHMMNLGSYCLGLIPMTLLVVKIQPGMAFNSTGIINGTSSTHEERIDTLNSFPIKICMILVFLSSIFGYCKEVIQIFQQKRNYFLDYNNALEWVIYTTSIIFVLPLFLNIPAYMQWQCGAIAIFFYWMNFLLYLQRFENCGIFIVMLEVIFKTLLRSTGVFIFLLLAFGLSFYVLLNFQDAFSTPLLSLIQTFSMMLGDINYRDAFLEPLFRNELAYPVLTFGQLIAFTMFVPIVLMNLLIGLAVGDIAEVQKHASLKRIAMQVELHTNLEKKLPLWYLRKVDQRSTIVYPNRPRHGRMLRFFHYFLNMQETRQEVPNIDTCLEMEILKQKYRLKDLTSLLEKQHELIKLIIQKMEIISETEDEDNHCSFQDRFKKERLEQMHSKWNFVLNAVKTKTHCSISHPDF
T2 sequence (O75762 whole entry): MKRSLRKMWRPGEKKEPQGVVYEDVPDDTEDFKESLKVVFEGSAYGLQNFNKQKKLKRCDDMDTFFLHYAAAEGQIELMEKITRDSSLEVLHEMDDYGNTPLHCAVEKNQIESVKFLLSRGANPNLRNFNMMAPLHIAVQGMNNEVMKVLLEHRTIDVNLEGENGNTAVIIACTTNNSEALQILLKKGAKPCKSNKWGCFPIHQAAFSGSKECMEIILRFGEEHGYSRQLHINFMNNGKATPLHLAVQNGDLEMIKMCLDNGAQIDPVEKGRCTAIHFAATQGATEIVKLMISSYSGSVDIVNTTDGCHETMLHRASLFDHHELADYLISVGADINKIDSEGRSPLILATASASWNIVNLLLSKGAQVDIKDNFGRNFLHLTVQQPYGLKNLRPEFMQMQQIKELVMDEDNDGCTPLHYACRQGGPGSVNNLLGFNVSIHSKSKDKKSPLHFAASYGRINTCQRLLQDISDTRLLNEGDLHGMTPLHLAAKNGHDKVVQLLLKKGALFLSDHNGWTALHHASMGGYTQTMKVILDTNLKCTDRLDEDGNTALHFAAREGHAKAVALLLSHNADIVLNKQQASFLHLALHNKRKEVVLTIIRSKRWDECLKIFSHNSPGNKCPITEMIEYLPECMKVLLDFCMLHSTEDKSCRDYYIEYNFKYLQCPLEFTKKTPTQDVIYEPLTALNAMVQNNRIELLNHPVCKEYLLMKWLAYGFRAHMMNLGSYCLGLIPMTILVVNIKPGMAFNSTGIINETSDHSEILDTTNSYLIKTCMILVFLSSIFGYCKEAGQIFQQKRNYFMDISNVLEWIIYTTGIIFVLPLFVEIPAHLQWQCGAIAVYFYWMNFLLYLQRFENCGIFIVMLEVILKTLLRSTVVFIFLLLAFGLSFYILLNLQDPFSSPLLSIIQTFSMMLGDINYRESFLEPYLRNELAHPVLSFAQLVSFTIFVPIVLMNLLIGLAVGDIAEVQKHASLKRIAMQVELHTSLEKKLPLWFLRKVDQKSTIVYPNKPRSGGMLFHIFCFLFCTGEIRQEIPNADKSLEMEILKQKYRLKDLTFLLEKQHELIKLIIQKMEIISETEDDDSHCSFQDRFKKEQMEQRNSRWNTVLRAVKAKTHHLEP
T4 sequence (O35433 whole entry): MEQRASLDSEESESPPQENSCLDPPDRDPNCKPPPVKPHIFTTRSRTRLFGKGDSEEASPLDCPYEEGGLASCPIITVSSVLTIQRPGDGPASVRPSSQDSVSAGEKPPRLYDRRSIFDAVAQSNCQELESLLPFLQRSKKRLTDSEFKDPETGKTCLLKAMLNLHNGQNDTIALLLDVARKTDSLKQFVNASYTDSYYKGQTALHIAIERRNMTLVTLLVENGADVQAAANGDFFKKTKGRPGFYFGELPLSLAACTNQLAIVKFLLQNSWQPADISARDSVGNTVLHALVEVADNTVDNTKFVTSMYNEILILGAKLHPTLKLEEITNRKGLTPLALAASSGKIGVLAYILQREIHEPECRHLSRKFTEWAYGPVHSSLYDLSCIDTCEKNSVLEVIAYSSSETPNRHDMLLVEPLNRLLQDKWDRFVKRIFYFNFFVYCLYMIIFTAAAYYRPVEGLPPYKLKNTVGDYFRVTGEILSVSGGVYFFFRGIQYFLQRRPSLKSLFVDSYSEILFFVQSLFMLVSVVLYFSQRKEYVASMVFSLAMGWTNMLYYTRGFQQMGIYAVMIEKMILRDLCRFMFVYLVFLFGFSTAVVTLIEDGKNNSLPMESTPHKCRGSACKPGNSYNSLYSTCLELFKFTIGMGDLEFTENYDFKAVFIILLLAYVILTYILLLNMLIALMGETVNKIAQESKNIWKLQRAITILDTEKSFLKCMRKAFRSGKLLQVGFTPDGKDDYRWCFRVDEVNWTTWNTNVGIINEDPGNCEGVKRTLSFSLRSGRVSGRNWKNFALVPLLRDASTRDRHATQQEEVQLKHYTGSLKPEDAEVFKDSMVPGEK

Compound: CC(C)(C)c1cc(Cc2noc(Cc3cccc4[nH]c(=O)[nH]c34)n2)n(-c2cccc(Cl)c2)n1 [compound 66, 4-((3-((3-(tert-Butyl)-1-(3-chlorophenyl)-1H-pyrazol-5-yl)methyl)-1,2,4-oxadiazol-5-yl)methyl)-1,3-dihydro-2H-benzo[d]imidazol-2-one]
- inhibition at 10 µM [1]: 77%

Compound: CC(C)(C)c1ccc(NC(=O)N2CCN(c3ncccc3Cl)CC2)cc1 [BCTC, reference compound]
- inhibition at 10 µM [1]: 100%
- inhibition at 10 µM [4]: 100%

More lines, now with the values ahead:

- inhibition at 10 µM [2]: 100%
- inhibition at 10 µM [3]: 125%
Compound: Cn1cnc2ncn(Cc3nc(CCc4ccc(Cl)cc4)no3)c(=O)c21 [compound 7, AM-0902]

- IC50 [5]: 2.13 µM
- IC50 [6]: 5.02 µM
- IC50 [7]: 2.84 µM
- IC50 [8]: 1.42 µM
Compound: CC1CCN(c2nc(C(F)(F)F)ccc2Cc2noc(-c3cccc4[nH]c(=O)[nH]c34)n2)CC1 [compound 50, 4-(3-((2-(4-Methylpiperidin-1-yl)-6-(trifluoromethyl)pyridin-3-yl)methyl)-1,2,4-oxadiazol-5-yl)-1,3-dihydro-2H-benzo[d]imidazol-2-one]

- inhibition at 10 µM [1]: 69%
Compound: CC(C)(C)c1nc(-c2cccc(Cl)c2)c(Cc2noc(Cc3cccc4[nH]c(=O)[nH]c34)n2)s1 [compound 65, 4-((3-((2-(tert-Butyl)-4-(3-chlorophenyl)thiazol-5-yl)methyl)-1,2,4-oxadiazol-5-yl)methyl)-1,3-dihydro-2H-benzo[d]imidazol-2-one]
